Experimental data from patent publication US20110118202A1, “Molecules which Bind to the Dimerization Initiation Site (DIS) of HIV RNA, Their Synthesis and Their Applications as Drugs” (priority 2006, published 2011).
Entries after “also recorded” stand apart in the source; their conditions may differ.

Key:
[1] = system: subtype A DIS of HIV-1 genomic RNA; test: In situ DMS footprinting in infected CEMx174 cells and virions, subtype A DIS; conditions: infected cells and viral particles; 3 mM aminoglycoside in culture
[2] = system: subtype B DIS of HIV-1 genomic RNA; test: In situ DMS footprinting in infected CEMx174 cells and virions, subtype B DIS; conditions: infected cells and viral particles; 3 mM aminoglycoside in culture
[3] = system: subtype A DIS kissing-loop complex (23-mer RNA); test: Lead(II)-induced cleavage of the DIS loop, 23-mer RNA (footprinting); assay type: binding, HIV-1; conditions: for inhibition of lead-induced cleavage of the subtype A DIS loop: 25 μM aminoglycoside; for inhibition of lead-induced cleavage of the DIS loop, relative efficiency: FIG. 21
Experimental: (§1) Materials and Methods: Chemical footprinting experiments were performed on a 23-mer subtype A SL1 RNA or on RNA1-615, which corresponds to nucleotides 1-615 of HIV-1 Mal genomic RNA (Ennifar et al., J. Biol. Chem. 2003 278:2723-2730). Chemical modification was carried out either with dimethyl sulfate (DMS, Fluka) to test the accessibility of N1-A and N3-C positions or with lead acetate (Merck), which selectivity cleaves the subtype A DIS loop between the first and second nucleotides.
(§2) The binding of aminoglycosides to DIS can be detected through several biochemical methods: it induces protection toward chemical modification with dimethyl sulfate (DMS) or toward a specific cleavage in the subtype A promoted by lead (II); it also induces slower migration on non-denaturated gel.
At this stage, it was unclear if this class of compound is able to bind to the DIS kissing-loop complex. To compare binding of 4,5-disubstituted and 4,6-disubstituted DOS, a 23-mer RNA corresponding to the subtype A DIS, which was allowed to dimerize in conditions permitting crystallization of the kissing-loop complex, was used. As previously shown, lead (II) induced a specific cleavage in the subtype A DIS loop that is sensitive to the binding of aminoglycoside (FIG. 21).

[4] = system: DIS kissing-loop complex in RNA1-615 (HIV-1 MAL genomic RNA, subtype A DIS); test: Lead-induced cleavage of RNA1-615, primer extension assay; assay type: binding
Experimental: as §1
To evaluate the capacity of 4,5-disubstituted DOS to bind to the DIS kissing-loop complex in a larger RNA presenting numerous unspecific binding sites, RNA1-615, which corresponds to nucleotides 1 to 615 of the HIV-1 MAL genomic RNA, was used.

[5] = system: DIS kissing-loop complex of RNA1-615 (HIV-1 MAL, subtype A DIS); test: Competition experiment: exchange of RNA 1-615 homodimer with RNA 1-311 (heterodimer formation); assay type: biochemical; conditions: for heterodimer formation after addition of RNA1-311: 100 μM aminoglycoside, fivefold excess RNA1-311, up to one hour; for heterodimer formation after addition of RNA1-311 / heterodimer formed compared with dimer 12: 37° C.; for heterodimer formed compared with dimer 12: FIG. 14; for exchange of preformed RNA homodimers (1-615/1-615) with RNA (1-311): FIG. 13
Experimental: Materials and Methods: In a typical experiment, unlabeled 1-615 RNA (400 nM), together with a corresponding internally labeled RNA (3-5 nCi), were heated for 2 min at 90° C., chilled for 2 min on ice, and dimerization was initiated by addition of 2 μl of 5-fold concentrated dimerization buffer (final concentration: 50 mM sodium cacodylate, pH 7.5, 300 mM KCl, 5 mM MgCl2). After incubation at 37° C. for 20 min, 100 μM of aminoglycosides were added to the RNA mixture and incubation was continue for 15 min. Then, RNA 1-311 was added as a competitor and sample were collected at 2, 5, 10, 15, 20, 30, and 60 min and analyzed on 0.8% agarose gels (45 mM Tris borate pH 8.3, 01 mM MgCl2) at 4° C. Gels were fixed in TCA 10%, dried, and analyzed using a BAS 2000 Bio-Imager (Fuji).
The kissing-loop complex of radiolabeled RNA1-615 was formed, and then aminoglycosides at a 100 AM concentration were added. Next, a fivefold excess of unlabeled RNA1-311, encompassing nucleotides 1 to 311 of HIV-1 MAL genomic RNA, that also contains the subtype A DIS and is thus able to form a heterodimer with RNA1-615, was added (FIG. 24). Due to the dynamic nature of the kissing-loop complex, in the absence of aminoglycoside, greater than half of the radioactive material was shifted in the heterodimer within two minutes, and the RNA1-615 homodimer almost completely disappeared upon prolonged incubation. […] This observation is in keeping with the crystal structures showing that 4,5-disubstituted DOS form a bridge between the two RNA molecules (FIG. 18).
The aminoglycosides have also been investigated in solution. Their ability to stabilize the loop-loop interaction was investigated through competition experiments. Preformed RNA homodimers (1-615/1-615) were placed in the presence of the same but shorter RNA (1-311), and the kinetic of their exchanges was followed in the presence, or not, of aminoglycosides (FIG. 13).

[6] = system: subtype F DIS of HIV-1 genomic RNA; test: In situ DMS footprinting in infected CEMx174 cells and virions, subtype F DIS; conditions: infected cells and viral particles; 3 mM aminoglycoside in culture
[7] = system: subtype A DIS in RNA1-615 (HIV-1 MAL genomic RNA); test: DMS footprinting of aminoglycosides on RNA1-615 (subtype A DIS); assay type: binding; conditions: for protection of A280 against methylation by DMS: 10 μM and above; for protection of A280 against methylation by DMS / protection against methylation by DMS: RNA1-615; for protection against methylation by DMS: even at 100 μM
Experimental: as §1, §2
Residues A272 and A280 of RNA1-615 are unpaired in the kissing-loop complex and are methylated by DMS at their N1 position. As previously observed (Baudin et al., J. Mol. Biol. 1993, 229:382-397; Paillart et al., J. Mol. Biol. 1997, 270:36-49), A280 is more reactive than A272, even though the latter nucleotide is flipped out of the helix, while the former is stacked inside the structure. […] On the other hand, A272, which is flipped out of the kissing-loop complex was not protected against methylation by DMS (FIG. 22B). […] Thus, even though these compounds bound to short DIS RNA in the same way as neomycin and lividomycin (FIGS. 19A and 19B), they were unable to efficiently recognize this target in the context of a large RNA.

[8] = system: subtype F kissing-loop complex; test: DMS footprinting, subtype F DIS in the context of RNA1-615; assay type: binding, HIV-1
[9] = system: ribosomal A site; conditions: Wong et al., Chem. Biol. 1998; cited from earlier work
[10] = system: subtype B kissing-loop complex; test: DMS footprinting, subtype B DIS; assay type: binding, HIV-1; conditions: NL4.3 sequence
Experimental: as §1
The dimeric molecules also protect from DMS modification as neomycin (FIG. 10).
In addition, none of the 4,5-disubstituted DOS was bound to the subtype B kissing-loop complex.

[11] = subtype A, loop adenine A280 and guanine G274

| Structure (SMILES) | reduction of alkylation (DMS) of A280 of the subtype A DIS [1] | protection of A280 against DMS methylation of subtype B DIS [2] | inhibition of lead-induced cleavage of the subtype A DIS loop [3] | inhibition of lead-induced cleavage between A272 and G273 ([4]; 50 μM) | heterodimer formation after addition of RNA1-311 [5] | heterodimer formed compared with dimer 12 [5] | exchange of preformed RNA homodimers (1-615/1-615) with RNA (1-311) [5] | reduction of alkylation (DMS) of A280 of the subtype F DIS [6] | protection of A280 against methylation by DMS [7] | binding to the subtype F kissing-loop complex by DMS footprinting [8] | inhibition of lead-induced cleavage of the DIS loop, relative efficiency [3] | inhibition of lead-induced cleavage between A272 and G273 ([4]; even at 100 μM) | affinity for the ribosomal A site [9] | protection against methylation by DMS [7] | interaction seen by DMS modification [10] | protection from DMS modification ([7]; Mal sequence) | protection from DMS modification [7, 11] |
| --- | --- | --- | --- | --- | --- | --- | --- | --- | --- | --- | --- | --- | --- | --- | --- | --- | --- |
| NC[C@@H]1O[C@H](O[C@H]2[C@@H](O)[C@H](O[C@@H]3[C@@H](O)[C@H](N)C[C@H](N)[C@H]3O[C@H]3O[C@H](CO)[C@@H](O)C[C@H]3N)O[C@@H]2CO)[C@H](N)[C@@H](O)[C@@H]1O[C@H]1O[C@H](CO)[C@@H](O)[C@H](O)[C@@H]1O [lividomycin] | more than two-fold | did not protect A280 | completely inhibited | almost completely inhibited | only minimal amounts of heterodimer were formed | twice less heterodimer | almost totally abolish the exchange | more than two-fold | strongly protected A280 against methylation | efficiently bound |  |  |  |  |  |  |  |
| NC[C@H]1O[C@H](O[C@H]2[C@H](O)[C@@H](O)[C@H](N)C[C@@H]2N)[C@H](N)[C@@H](O)[C@@H]1O [neamine] |  |  |  |  |  |  |  |  |  | did not bind | less efficient; also recorded: inhibited cleavage at lower concentration than the tricyclic ribostamycin | no inhibition | higher affinity than ribostamycin | no protection against methylation |  |  |  |
| NCC1O[C@H](O[C@@H]2C(N)C[C@@H](N)C(O)[C@H]2O[C@@H]2O[C@H](CO)C(O[C@H]3O[C@H](CN)[C@@H](O)C(O)C3N)[C@@H]2O)C(N)[C@@H](O)[C@@H]1O (some centres unmarked) [neomycin] | more than two-fold | did not protect A280 | completely inhibited | almost completely inhibited | only minimal amounts of heterodimer were formed | twice less heterodimer | almost totally abolish the exchange | more than two-fold | strongly protected A280 against methylation | efficiently bound | equally inhibited |  |  |  | no significant interaction | protect from DMS modification the bases implicated in the interaction | protects from DMS modification the loop adenine A280 and the guanine G274 |
| NC[C@@H]1O[C@H](O[C@H]2[C@@H](O)[C@H](O[C@@H]3[C@@H](O)[C@H](N)C[C@H](N)[C@H]3O[C@H]3O[C@H](CO)[C@@H](O)[C@H](O)[C@H]3N)O[C@@H]2CO)[C@H](N)[C@@H](O)[C@@H]1O [paromomycin] | more than two-fold | did not protect A280 |  |  | only minimal amounts of heterodimer were formed | twice less heterodimer | almost totally abolish the exchange |  |  |  |  |  |  |  | no significant interaction | protect from DMS modification the bases implicated in the interaction |  |
| NC[C@H]1O[C@H](O[C@H]2[C@H](O[C@@H]3O[C@H](CO)[C@@H](O)[C@H]3O)[C@@H](O)[C@H](N)C[C@@H]2N)[C@H](N)[C@@H](O)[C@@H]1O [ribostamycin] |  |  |  |  |  |  |  |  |  | did not bind | less efficient | no inhibition |  | no protection against methylation |  |  |  |
| NC[C@H]1O[C@H](O[C@H]2[C@H](O)[C@@H](O[C@H]3O[C@H](CO)[C@@H](O)[C@H](N)[C@H]3O)[C@H](N)C[C@@H]2N)[C@H](N)C[C@@H]1O [tobramycin] |  |  |  |  |  |  |  |  |  |  |  |  |  |  |  |  | no protection |
